The values below come from US11325899B2, “Benzofurane and benzothiophene derivatives as PGE2 receptor modulators” (IDORSIA PHARMACEUTICALS LTD, priority 2017, dated 2022).

The target in assay [1] is T1, PTGER2 (EP2) (Homo sapiens, UniProt P43116).
T1 construct: host or cells: HEK 293 (PathHunter PTGER2 b-arrestin cell line)
Description: hEP2 b-arrestin assay (PathHunter HEK 293 PTGER2 b-arrestin cells). It counts as cell-based. The following applies: antagonistic activity, beta-arrestin assay; read-out: hEP2 b-arr IC50. The method in brief: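 PathHunter HEK293 cells with ProLink-tagged EP2 and EA-β-arrestin 2 preincubated 15 min at 37 °C with compound (10 μM-2 nM or 1 μM-0.2 nM), then stimulated 120 min with 5 μM PGE2 (EC80). β-gal complementation read by chemiluminescence; IC50 from duplicate dose-response versus DMSO.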

The target in assay [2] is T2, PTGER4 (EP4) (Homo sapiens, UniProt P35408).
T2 construct: host or cells: HEK 293 (PathHunter PTGER4 b-arrestin cell line)
Kind of assay: hEP4 b-arrestin assay (PathHunter HEK 293 PTGER4 b-arrestin cells). It counts as cell-based. Conditions: antagonistic activity, beta-arrestin assay; read-out: hEP4 b-arr IC50. A digest of the protocol: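 PathHunter HEK 293 cells expressing ProLink-tagged human EP4 and EA-β-arrestin 2, seeded 24 h before. Compounds (10 μM–2 nM or 1 μM–0.2 nM) preincubated 15 min at 37 °C, then 20 nM PGE2 (EC80) for 120 min at 37 °C. β-gal complementation luminescence read; IC50 from duplicate dose-response curves versus DMSO control.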

T1 sequence (P43116 whole entry): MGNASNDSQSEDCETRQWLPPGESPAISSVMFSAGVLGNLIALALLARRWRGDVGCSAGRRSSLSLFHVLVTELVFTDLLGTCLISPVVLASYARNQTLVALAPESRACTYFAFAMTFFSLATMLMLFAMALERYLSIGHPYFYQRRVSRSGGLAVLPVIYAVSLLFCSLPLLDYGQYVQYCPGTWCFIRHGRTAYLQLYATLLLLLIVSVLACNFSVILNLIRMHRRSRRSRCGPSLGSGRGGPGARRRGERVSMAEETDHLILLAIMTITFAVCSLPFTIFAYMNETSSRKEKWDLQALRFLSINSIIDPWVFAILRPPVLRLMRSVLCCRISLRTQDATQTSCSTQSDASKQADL
T2 sequence (P35408 whole entry): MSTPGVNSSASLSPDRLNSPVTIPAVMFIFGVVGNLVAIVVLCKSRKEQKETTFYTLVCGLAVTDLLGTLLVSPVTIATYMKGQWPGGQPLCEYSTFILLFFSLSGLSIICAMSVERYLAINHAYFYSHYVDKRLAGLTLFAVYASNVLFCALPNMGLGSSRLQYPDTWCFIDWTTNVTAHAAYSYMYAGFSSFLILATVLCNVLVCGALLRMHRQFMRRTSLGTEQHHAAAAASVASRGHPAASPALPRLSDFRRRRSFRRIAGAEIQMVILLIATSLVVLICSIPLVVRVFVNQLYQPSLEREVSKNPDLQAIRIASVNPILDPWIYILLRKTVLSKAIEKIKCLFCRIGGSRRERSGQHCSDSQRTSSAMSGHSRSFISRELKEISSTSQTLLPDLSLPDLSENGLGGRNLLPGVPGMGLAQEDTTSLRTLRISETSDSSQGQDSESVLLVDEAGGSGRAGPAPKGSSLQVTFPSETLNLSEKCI

Turning to `CCOc1cc(-c2cc(NCCc3c(C)sc4c(Cl)cc(F)cc34)ncn2)ccc1C(=O)O` [Example 65, 4-{6-[2-(7-Chloro-5-fluoro-2-methyl-benzo[b]thiophen-3-yl)-ethylamino]-pyrimidin-4-yl}-2-ethoxy-benzoic acid], the IC50 (in general, the concentration that inhibits the measured activity by half) came to 16 nM in assay [1] and 428 nM in assay [2].
For `CCOc1cc(-c2cc(NCCc3c(C)sc4c(C)ccc(Cl)c34)ncn2)ccc1C(=O)O` [Example 66, 4-{6-[2-(4-Chloro-2,7-dimethyl-benzo[b]thiophen-3-yl)-ethylamino]-pyrimidin-4-yl}-2-ethoxy-benzoic acid] the same measures were 27 nM and 407 nM.
For `CCOc1cc(-c2cc(NCCc3c(C)oc4c(OC)ccc(F)c34)ncn2)ccc1C(=O)O` [Example 67, 2-Ethoxy-4-{6-[2-(4-fluoro-7-methoxy-2-methyl-benzofuran-3-yl)-ethylamino]-pyrimidin-4-yl}-benzoic acid] the same measures were 73 nM and 369 nM.
`CCOc1cc(-c2cc(NCCc3c(C)oc4c(Cl)cccc34)ncn2)ccc1C(=O)O` [Example 68, 4-{6-[2-(7-Chloro-2-methyl-benzofuran-3-yl)-ethylamino]-pyrimidin-4-yl}-2-ethoxy-benzoic acid]: the IC50 in assay [1] was determined as 14 nM; in assay [2], 659 nM.
The like results for `CCOc1cc(-c2cc(NCCc3c(C)oc4c(C)cc(F)cc34)ncn2)ccc1C(=O)O` [Example 69, 2-Ethoxy-4-{6-[2-(5-fluoro-2,7-dimethyl-benzofuran-3-yl)-ethylamino]-pyrimidin-4-yl}-benzoic acid] were, in that order, 24 nM and 668 nM.
For `CCOc1cc(-c2cc(NCCc3c(C)oc4c(OC)cc(Cl)cc34)ncn2)ccc1C(=O)O` [Example 70, 4-{6-[2-(5-Chloro-7-methoxy-2-methyl-benzofuran-3-yl)-ethylamino]-pyrimidin-4-yl}-2-ethoxy-benzoic acid] the same measures were 37 nM and 394 nM.
For `CCOc1cc(-c2cc(NCCc3c(C)oc4c(Cl)cc(Cl)cc34)ncn2)ccc1C(=O)O` [Example 71, 4-{6-[2-(5,7-Dichloro-2-methyl-benzofuran-3-yl)-ethylamino]-pyrimidin-4-yl}-2-ethoxy-benzoic acid] the same measures were 7 nM and 958 nM.
Turning to `CCOc1cc(-c2cc(NCCc3c(C)sc4ccccc34)ncn2)ccc1C(=O)O` [Example 72, 2-Ethoxy-4-{6-[2-(2-methyl-benzo[b]thiophen-3-yl)-ethylamino]-pyrimidin-4-yl}-benzoic acid], the results for the IC50 in assay [1] and in assay [2] were 3 nM and 2250 nM, respectively.
The like results for `CCOc1cc(-c2cc(NCCc3c(Cl)sc4ccccc34)ncn2)ccc1C(=O)O` [Example 75, 4-{6-[2-(2-chloro-benzo[b]thiophen-3-yl)-ethylamino]-pyrimidin-4-yl}-2-ethoxy-benzoic acid] were, in that order, 8 nM and 4300 nM.
The like results for `Cc1sc2c(C)cccc2c1CCNc1cc(-c2ccc3c(C(=O)O)coc3c2)ncn1` [Example 76, 6-{6-[2-(2,7-Dimethyl-benzo[b]thiophen-3-yl)-ethylamino]-pyrimidin-4-yl}-benzofuran-3-carboxylic acid] were, in that order, 10 nM and 1140 nM.
For `Cc1sc2c(C)cccc2c1CCNc1cc(-c2ccc3cc(C(=O)O)oc3c2)ncn1` [Example 77, 6-{6-[2-(2,7-Dimethyl-benzo[b]thiophen-3-yl)-ethylamino]-pyrimidin-4-yl}-benzofuran-2-carboxylic acid] the same measures were 6 nM and 1310 nM.
For the compound `Cc1sc2c(C)cc(F)cc2c1CCNc1cc(-c2ccc(-c3nc(=O)[nH]o3)cc2)ncn1` [Example 79, 5-(4-{6-[2-(5-Fluoro-2,7-dimethyl-benzo[b]thiophen-3-yl)-ethylamino]-pyrimidin-4-yl}-phenyl)-[1,2,4]oxadiazol-3(2H)-one [tautomeric form: 5-(4-(6-((2-(5-fluoro-2,7-dimethylbenzo[b]thiophen-3-yl)ethyl)amino)pyrimidin-4-yl)phenyl)-[1,2,4]oxadiazol-3-ol]], the IC50 in assay [1] was determined as 26 nM; in assay [2], 263 nM.
For `Cc1sc2c(C)cc(F)cc2c1CCNc1cc(-c2cc3c(C(=O)O)cccc3[nH]2)ncn1` [Example 82, 2-{6-[2-(5-Fluoro-2,7-dimethyl-benzo[b]thiophen-3-yl)-ethylamino]-pyrimidin-4-yl}-1H-indole-4-carboxylic acid] the same measures were 13 nM and 155 nM.
The like results for `COc1cc(Cl)cc2c(CCNc3cc(-c4ccc(C(=O)O)c(OC5CC5)c4)ncn3)c(C)oc12` [Example 83, 4-{6-[2-(5-Chloro-7-methoxy-2-methyl-benzofuran-3-yl)-ethylamino]-pyrimidin-4-yl}-2-cyclopropoxy-benzoic acid] were, in that order, 22 nM and 101 nM.
For `COc1ccc(F)c2c(CCNc3cc(-c4ccc(C(=O)O)c(OC5CC5)c4)ncn3)c(C)sc12` [Example 84, 2-Cyclopropoxy-4-{6-[2-(4-fluoro-7-methoxy-2-methyl-benzo[b]thiophen-3-yl)-ethylamino]-pyrimidin-4-yl}-benzoic acid] the same measures were 21 nM and 80 nM.
As for `COc1cc(F)c(F)c2c(CCNc3cc(-c4ccc(C(=O)O)c(OC5CC5)c4)ncn3)c(C)oc12` [Example 85, 2-Cyclopropoxy-4-{6-[2-(4,5-difluoro-7-methoxy-2-methyl-benzofuran-3-yl)-ethylamino]-pyrimidin-4-yl}-benzoic acid], the IC50 in assay [1] worked out at 68 nM; in assay [2], 374 nM.
The like results for `Cc1sc2c(C)cc(F)cc2c1CCNc1cc(-c2ccc(C(=O)O)c(OCCO)c2)ncn1` [Example 86, 4-{6-[2-(5-fluoro-2,7-dimethyl-benzo[b]thiophen-3-yl)-ethylamino]-pyrimidin-4-yl}-2-(2-hydroxy-ethoxy)-benzoic acid] were, in that order, 19 nM and 4520 nM.
`CCCSc1cc(-c2cc(NCCc3c(C)sc4c(C)cccc34)ncn2)ccc1C(=O)O` [Example 87, 4-{6-[2-(2,7-Dimethyl-benzo[b]thiophen-3-yl)-ethylamino]-pyrimidin-4-yl}-2-propylsulfanyl-benzoic acid]: the IC50 in assay [1] amounted to 5 nM; in assay [2] it was 318 nM.
The like results for `CCCSc1cc(-c2cc(NCCc3c(C)sc4ccccc34)ncn2)ccc1C(=O)O` [Example 88, 4-{6-[2-(2-Methyl-benzo[b]thiophen-3-yl)-ethylamino]-pyrimidin-4-yl}-2-propylsulfanyl-benzoic acid] were, in that order, 21 nM and 1030 nM.
The like results for `CCCSc1cc(-c2cc(NCCc3c(C)oc4ccccc34)ncn2)ccc1C(=O)O` [Example 89, 4-{6-[2-(2-Methyl-benzofuran-3-yl)-ethylamino]-pyrimidin-4-yl}-2-propylsulfanyl-benzoic acid] were, in that order, 10 nM and 1030 nM.
For `Cc1sc2c(C)cccc2c1CCNc1cc(-c2ccc(C(=O)O)c(SC(C)C)c2)ncn1` [Example 90, 4-{6-[2-(2,7-Dimethyl-benzo[b]thiophen-3-yl)-ethylamino]-pyrimidin-4-yl}-2-isopropylsulfanyl-benzoic acid] the same measures were 11 nM and 247 nM.
Regarding `Cc1sc2ccccc2c1CCNc1cc(-c2ccc(C(=O)O)c(SC(C)C)c2)ncn1` [Example 91, 2-Isopropylsulfanyl-4-{6-[2-(2-methyl-benzo[b]thiophen-3-yl)-ethylamino]-pyrimidin-4-yl}-benzoic acid], the results for the IC50 in assay [1] and in assay [2] were 20 nM and 843 nM, respectively.
Turning to `Cc1oc2ccccc2c1CCNc1cc(-c2ccc(C(=O)O)c(SC(C)C)c2)ncn1` [Example 92, 2-Isopropylsulfanyl-4-{6-[2-(2-methyl-benzofuran-3-yl)-ethylamino]-pyrimidin-4-yl}-benzoic acid], the IC50 came to 6 nM in assay [1] and 816 nM in assay [2].
The like results for `CCc1cc(-c2cc(NCCc3c(C)sc4c(C)cc(F)cc34)ncn2)cc(C)c1CC(=O)O` [Example 194, (2-Ethyl-4-{6-[2-(5-fluoro-2,7-dimethyl-benzo[b]thiophen-3-yl)-ethylamino]-pyrimidin-4-yl}-6-methyl-phenyl)-acetic acid] were, in that order, 47 nM and 96 nM.
For `Cc1sc2c(C)cc(F)cc2c1CCNc1cc(-c2ccc(C(=O)O)c(OC3CC3)c2)ncn1` [Example 195, 2-Cyclopropoxy-4-{6-[2-(5-fluoro-2,7-dimethyl-benzo[b]thiophen-3-yl)-ethylamino]-pyrimidin-4-yl}-benzoic acid], the IC50 in assay [1] turned out to be 4 nM; in assay [2], 111 nM.
For `Cc1sc2c(C)cc(F)cc2c1CCNc1cc(-c2ccc(CC(=O)O)c(OC3CC3)c2)ncn1` [Example 196, (2-Cyclopropoxy-4-{6-[2-(5-fluoro-2,7-dimethyl-benzo[b]thiophen-3-yl)-ethylamino]-pyrimidin-4-yl}-phenyl)-acetic acid] the same measures were 16 nM and 99 nM.
